Usually IC50 stands for the concentration at which inhibition is half-maximal. A word on the EC50: it is the concentration needed to bring the measured effect to its halfway point. A word on the Emax: it is the size of the effect at its maximum, as opposed to the concentration needed.

Chain of Gamma-aminobutyric acid receptor subunit alpha-4/beta3/delta (P28472 whole entry): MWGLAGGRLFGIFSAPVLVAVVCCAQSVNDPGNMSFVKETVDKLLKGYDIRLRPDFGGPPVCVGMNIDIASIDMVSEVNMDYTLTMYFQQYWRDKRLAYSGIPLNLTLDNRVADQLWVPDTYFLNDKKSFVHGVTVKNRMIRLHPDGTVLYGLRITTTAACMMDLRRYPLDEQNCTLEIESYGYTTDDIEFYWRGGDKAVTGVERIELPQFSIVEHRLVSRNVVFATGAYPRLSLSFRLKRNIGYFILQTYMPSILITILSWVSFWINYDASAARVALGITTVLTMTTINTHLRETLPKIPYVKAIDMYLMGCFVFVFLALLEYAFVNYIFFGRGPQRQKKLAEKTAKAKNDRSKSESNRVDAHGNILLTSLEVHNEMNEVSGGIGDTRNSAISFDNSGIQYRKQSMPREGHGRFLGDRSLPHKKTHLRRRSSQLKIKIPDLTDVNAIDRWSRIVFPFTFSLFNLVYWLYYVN
Chain of Gamma-aminobutyric acid receptor subunit alpha-4/beta3/delta (P48169 whole entry): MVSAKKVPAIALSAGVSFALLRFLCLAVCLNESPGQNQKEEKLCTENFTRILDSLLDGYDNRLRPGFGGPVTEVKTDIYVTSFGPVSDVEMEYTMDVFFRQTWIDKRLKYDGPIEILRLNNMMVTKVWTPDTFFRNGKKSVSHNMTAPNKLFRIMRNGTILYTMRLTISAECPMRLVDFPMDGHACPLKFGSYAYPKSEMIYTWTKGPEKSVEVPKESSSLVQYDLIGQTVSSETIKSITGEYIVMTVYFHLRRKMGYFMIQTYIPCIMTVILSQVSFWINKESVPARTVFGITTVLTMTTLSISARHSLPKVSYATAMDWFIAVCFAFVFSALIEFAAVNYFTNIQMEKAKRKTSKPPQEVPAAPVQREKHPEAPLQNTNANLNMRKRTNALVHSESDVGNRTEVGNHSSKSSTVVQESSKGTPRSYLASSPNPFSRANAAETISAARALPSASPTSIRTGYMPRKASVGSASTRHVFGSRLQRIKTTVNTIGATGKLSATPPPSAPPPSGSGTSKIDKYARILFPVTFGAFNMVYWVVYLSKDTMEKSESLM
Chain of Gamma-aminobutyric acid receptor subunit alpha-4/beta3/delta (O14764 whole entry): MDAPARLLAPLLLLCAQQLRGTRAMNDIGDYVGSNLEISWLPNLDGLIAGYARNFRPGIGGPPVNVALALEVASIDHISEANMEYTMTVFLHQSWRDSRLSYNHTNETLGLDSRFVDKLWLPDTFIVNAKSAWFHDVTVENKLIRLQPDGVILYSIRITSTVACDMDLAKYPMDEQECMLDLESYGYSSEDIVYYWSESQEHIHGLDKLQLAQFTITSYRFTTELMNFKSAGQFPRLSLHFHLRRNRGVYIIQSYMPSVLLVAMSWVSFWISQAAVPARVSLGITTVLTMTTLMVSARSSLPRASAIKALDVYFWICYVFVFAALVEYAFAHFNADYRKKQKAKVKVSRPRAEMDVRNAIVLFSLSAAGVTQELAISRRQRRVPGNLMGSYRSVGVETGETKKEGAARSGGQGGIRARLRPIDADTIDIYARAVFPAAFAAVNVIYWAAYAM
Chain of GABA-A receptor alpha-4/beta-3/delta (P28472 whole entry): as the sequence (P28472 whole entry) above
Chain of GABA-A receptor alpha-4/beta-3/delta (P48169 whole entry): as the sequence (P48169 whole entry) above
Chain of GABA-A receptor alpha-4/beta-3/delta (Q06278 whole entry, further chain): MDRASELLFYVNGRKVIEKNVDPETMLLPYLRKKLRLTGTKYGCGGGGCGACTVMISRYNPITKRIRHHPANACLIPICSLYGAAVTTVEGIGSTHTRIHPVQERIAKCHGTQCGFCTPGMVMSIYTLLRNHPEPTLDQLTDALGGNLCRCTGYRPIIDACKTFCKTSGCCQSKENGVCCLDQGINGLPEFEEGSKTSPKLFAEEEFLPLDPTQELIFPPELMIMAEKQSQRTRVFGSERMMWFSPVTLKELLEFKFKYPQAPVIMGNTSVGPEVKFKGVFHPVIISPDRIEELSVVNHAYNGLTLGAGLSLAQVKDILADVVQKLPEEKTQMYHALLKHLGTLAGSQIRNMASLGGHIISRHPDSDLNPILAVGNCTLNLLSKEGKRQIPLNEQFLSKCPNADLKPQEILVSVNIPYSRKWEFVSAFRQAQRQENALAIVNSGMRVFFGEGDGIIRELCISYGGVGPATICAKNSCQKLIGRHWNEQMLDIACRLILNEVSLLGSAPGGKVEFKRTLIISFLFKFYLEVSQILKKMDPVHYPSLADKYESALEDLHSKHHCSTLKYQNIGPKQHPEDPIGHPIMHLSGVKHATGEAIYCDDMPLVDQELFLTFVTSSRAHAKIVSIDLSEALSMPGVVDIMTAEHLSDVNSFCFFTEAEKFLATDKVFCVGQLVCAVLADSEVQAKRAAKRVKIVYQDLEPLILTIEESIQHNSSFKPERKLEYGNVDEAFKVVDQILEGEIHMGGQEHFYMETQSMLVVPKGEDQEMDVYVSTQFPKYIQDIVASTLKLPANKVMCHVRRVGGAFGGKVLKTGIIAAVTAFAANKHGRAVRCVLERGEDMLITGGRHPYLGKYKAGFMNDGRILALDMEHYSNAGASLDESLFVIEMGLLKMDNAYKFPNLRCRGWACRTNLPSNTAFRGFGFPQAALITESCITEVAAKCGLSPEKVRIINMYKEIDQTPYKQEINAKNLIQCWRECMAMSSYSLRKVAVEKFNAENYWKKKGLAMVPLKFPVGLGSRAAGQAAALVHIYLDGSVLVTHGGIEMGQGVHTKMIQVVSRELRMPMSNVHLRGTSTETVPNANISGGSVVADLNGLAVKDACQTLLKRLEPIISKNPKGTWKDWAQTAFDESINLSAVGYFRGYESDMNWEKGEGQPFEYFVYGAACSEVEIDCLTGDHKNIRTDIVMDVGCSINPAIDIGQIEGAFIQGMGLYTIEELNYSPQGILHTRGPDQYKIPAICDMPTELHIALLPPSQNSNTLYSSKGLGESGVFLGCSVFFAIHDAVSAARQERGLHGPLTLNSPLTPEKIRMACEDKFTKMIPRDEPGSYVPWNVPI

Tested on in the first experiment: not listed separately
The experiment in a line: Displacement of [35S]TBPS from GABA-A receptor in Sprague-Dawley rat cerebral cortex cell membranes after 90 mins in presence of GABA by liquid scintillation counting.
Settings: not given
(In general: Loss of bound radioactivity is the signal in a displacement assay; it reports binding, not function.)
For the compound `Cc1cn(CC(=O)[C@H]2CC[C@H]3[C@@H]4CC[C@@H]5C[C@](C)(O)CC[C@@H]5[C@H]4CC[C@]23C)nn1`, the IC50 came out at 17 nM.

Consider `C[C@@]1(O)CC[C@H]2[C@H](CC[C@@H]3[C@@H]2CC[C@]2(C)[C@@H](C(=O)Cn4cc(C(F)(F)F)cn4)CC[C@@H]32)C1`, for which the IC50 was found to be 8 nM.

As for `C[C@@]1(O)CC[C@H]2[C@H](CC[C@@H]3[C@@H]2CC[C@]2(C)[C@@H](C(=O)Cn4cc(C(=O)O)cn4)CC[C@@H]32)C1`, the IC50 was greater than 3000 nM.

For `C[C@@]1(O)CC[C@H]2[C@H](CC[C@@H]3[C@@H]2CC[C@]2(C)[C@@H](C(=O)Cn4cc(Cl)cn4)CC[C@@H]32)C1`, the half-inhibitory concentration (IC50) came to 13 nM.

`Cc1ccnn1CC(=O)[C@H]1CC[C@H]2[C@@H]3CC[C@@H]4C[C@](C)(O)CC[C@@H]4[C@H]3CC[C@]12C`: the concentration for half-maximal inhibition (IC50) came to 80 nM.

As to `Cc1ccn(CC(=O)[C@H]2CC[C@H]3[C@@H]4CC[C@@H]5C[C@](C)(O)CC[C@@H]5[C@H]4CC[C@]23C)n1`, the 50% inhibitory concentration (IC50) was 45 nM.

For the compound `CC[C@@]1(O)CC[C@H]2[C@H](CC[C@@H]3[C@@H]2CC[C@]2(C)[C@@H](C(=O)Cn4cc(C#N)cn4)CC[C@@H]32)C1`, the IC50 is 36 nM.

In the case of `COC[C@@]1(O)CC[C@H]2[C@H](CC[C@@H]3[C@@H]2CC[C@]2(C)[C@@H](C(=O)Cn4cc(C#N)cn4)CC[C@@H]32)C1`, the IC50 was 16 nM.

A further experiment concerns the target T1, GABA-A receptor; alpha-1/beta-2/gamma-2 (Homo sapiens, UniProt P14867+P18507+P47870).
T1 sequence (P14867 whole entry): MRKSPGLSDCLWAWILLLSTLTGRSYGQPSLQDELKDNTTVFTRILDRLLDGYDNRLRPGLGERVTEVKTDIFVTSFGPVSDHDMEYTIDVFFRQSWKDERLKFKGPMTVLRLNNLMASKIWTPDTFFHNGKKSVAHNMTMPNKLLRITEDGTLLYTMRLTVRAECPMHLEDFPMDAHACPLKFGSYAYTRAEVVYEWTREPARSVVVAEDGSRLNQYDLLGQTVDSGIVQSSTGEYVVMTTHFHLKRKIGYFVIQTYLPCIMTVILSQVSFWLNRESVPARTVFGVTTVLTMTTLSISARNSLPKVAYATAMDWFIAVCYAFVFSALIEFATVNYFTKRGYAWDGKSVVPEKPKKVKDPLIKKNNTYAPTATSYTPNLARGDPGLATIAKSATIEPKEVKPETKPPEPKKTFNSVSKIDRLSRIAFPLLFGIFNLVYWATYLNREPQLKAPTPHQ
T1 sequence (P47870 whole entry): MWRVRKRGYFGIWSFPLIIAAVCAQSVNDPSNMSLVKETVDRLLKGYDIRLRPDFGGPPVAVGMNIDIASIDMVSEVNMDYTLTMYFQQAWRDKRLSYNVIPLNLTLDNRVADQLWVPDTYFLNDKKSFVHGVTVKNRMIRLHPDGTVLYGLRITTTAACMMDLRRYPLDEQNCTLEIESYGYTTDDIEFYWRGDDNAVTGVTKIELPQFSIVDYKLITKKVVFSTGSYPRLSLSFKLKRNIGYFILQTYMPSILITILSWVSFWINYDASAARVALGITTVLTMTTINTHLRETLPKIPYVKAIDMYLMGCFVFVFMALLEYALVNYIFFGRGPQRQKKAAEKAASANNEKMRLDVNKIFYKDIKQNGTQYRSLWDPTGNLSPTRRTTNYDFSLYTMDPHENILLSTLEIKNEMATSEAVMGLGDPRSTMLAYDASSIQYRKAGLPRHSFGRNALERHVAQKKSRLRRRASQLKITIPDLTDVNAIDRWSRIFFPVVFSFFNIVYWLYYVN
T1 sequence (P18507 whole entry): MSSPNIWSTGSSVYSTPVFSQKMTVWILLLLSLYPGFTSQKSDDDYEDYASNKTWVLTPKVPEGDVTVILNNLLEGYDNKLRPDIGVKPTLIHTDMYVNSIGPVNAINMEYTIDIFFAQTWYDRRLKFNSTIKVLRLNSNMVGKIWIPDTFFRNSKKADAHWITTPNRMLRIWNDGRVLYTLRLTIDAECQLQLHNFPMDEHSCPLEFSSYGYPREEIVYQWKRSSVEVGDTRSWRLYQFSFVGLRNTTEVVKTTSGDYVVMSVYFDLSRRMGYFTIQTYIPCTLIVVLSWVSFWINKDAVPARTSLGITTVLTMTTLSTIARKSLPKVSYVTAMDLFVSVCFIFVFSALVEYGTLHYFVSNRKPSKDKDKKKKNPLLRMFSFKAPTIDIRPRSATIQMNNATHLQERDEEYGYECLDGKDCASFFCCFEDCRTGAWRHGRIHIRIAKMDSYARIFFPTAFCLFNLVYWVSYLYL
Put plainly: Positive allosteric modulation of GABAA receptor alpha1beta2gamma2 (unknown origin) expressed in mouse LTK cells assessed as potentiation of GABA-mediated increase in channel current under holding potential at -80 mV preincubated for 30 secs followed by GABA stimulation for 2 secs by automated patch clamp assay. Type of experiment: cell-based.
Settings: not given
(In general: The patch-clamp technique gives a direct electrical read-out from membranes.)
As to `Cc1cn(CC(=O)[C@H]2CC[C@H]3[C@@H]4CC[C@@H]5C[C@](C)(O)CC[C@@H]5[C@H]4CC[C@]23C)nn1`, the EC50 is greater than 3000 nM.

Turning to `C[C@@]1(O)CC[C@H]2[C@H](CC[C@@H]3[C@@H]2CC[C@]2(C)[C@@H](C(=O)Cn4cc(C(F)(F)F)cn4)CC[C@@H]32)C1`, the EC50 stood at 1050 nM.

As to `C[C@@]1(O)CC[C@H]2[C@H](CC[C@@H]3[C@@H]2CC[C@]2(C)[C@@H](C(=O)Cn4cc(Cl)cn4)CC[C@@H]32)C1`, the EC50 worked out at 1500 nM.

On to `Cc1ccnn1CC(=O)[C@H]1CC[C@H]2[C@@H]3CC[C@@H]4C[C@](C)(O)CC[C@@H]4[C@H]3CC[C@]12C`, for which the EC50 is greater than 10000 nM.

As for `Cc1ccn(CC(=O)[C@H]2CC[C@H]3[C@@H]4CC[C@@H]5C[C@](C)(O)CC[C@@H]5[C@H]4CC[C@]23C)n1`, the concentration giving a half-maximal response (EC50) is greater than 3650 nM.

Consider `CC[C@@]1(O)CC[C@H]2[C@H](CC[C@@H]3[C@@H]2CC[C@]2(C)[C@@H](C(=O)Cn4cc(C#N)cn4)CC[C@@H]32)C1`, for which the EC50 is greater than 3000 nM.

In the case of `COC[C@@]1(O)CC[C@H]2[C@H](CC[C@@H]3[C@@H]2CC[C@]2(C)[C@@H](C(=O)Cn4cc(C#N)cn4)CC[C@@H]32)C1`, the EC50 is greater than 3000 nM.

A further experiment has as its target Gamma-aminobutyric acid receptor subunit alpha-4/beta3/delta (Homo sapiens, UniProt O14764+P28472+P48169). Put plainly: Positive allosteric modulation of GABAA receptor alpha4beta3delta (unknown origin) expressed in CHO cells assessed as potentiation of GABA-mediated increase in channel current under holding potential at -80 mV preincubated for 30 secs followed by GABA stimulation for 2 secs by manual patch clamp assay. Type of experiment: cell-based.
Settings: not given
On to `C[C@@]1(O)CC[C@H]2[C@H](CC[C@@H]3[C@@H]2CC[C@]2(C)[C@@H](C(=O)Cn4cc(C(F)(F)F)cn4)CC[C@@H]32)C1`, for which the 50% effective concentration (EC50) was found to be 1600 nM.

As to `C[C@@]1(O)CC[C@H]2[C@H](CC[C@@H]3[C@@H]2CC[C@]2(C)[C@@H](C(=O)Cn4cc(Cl)cn4)CC[C@@H]32)C1`, the concentration for a half-maximal effect (EC50) was found to be 744 nM.

With `COC[C@@]1(O)CC[C@H]2[C@H](CC[C@@H]3[C@@H]2CC[C@]2(C)[C@@H](C(=O)Cn4cc(C#N)cn4)CC[C@@H]32)C1`, the concentration for a half-maximal effect (EC50) came to 577 nM.

Another experiment has as its target GABA-A receptor alpha-4/beta-3/delta (Homo sapiens, UniProt P28472+P48169+). The experiment in a line: Positive allosteric modulation of GABAA receptor alpha4beta3delta (unknown origin) expressed in CHO cells assessed as potentiation of GABA-mediated increase in channel current under holding potential at -80 mV at 0.01 to 10 uM preincubated for 30 secs followed by GABA stimulation for 2 secs by manual patch clamp assay relative to GABA. Type of experiment: cell-based. As to conditions: 2 s.
As for `COC[C@@]1(O)CC[C@H]2[C@H](CC[C@@H]3[C@@H]2CC[C@]2(C)[C@@H](C(=O)Cn4cc(C#N)cn4)CC[C@@H]32)C1`, the maximum response (Emax) was found to be 610%.

The next experiment concerns the target GABA-A receptor; alpha-1/beta-2/gamma-2 (Homo sapiens) (UniProt P14867+P47870+P18507). The experiment in a line: Positive allosteric modulation of GABAA receptor alpha1beta2gamma2 (unknown origin) expressed in mouse LTK cells assessed as potentiation of GABA-mediated increase in channel current under holding potential at -80 mV at 0.01 to 10 uM preincubated for 30 secs followed by GABA stimulation for 2 secs by automated patch clamp assay relative to GABA.
Settings: not given
Type of experiment: cell-based.
As for `Cc1cn(CC(=O)[C@H]2CC[C@H]3[C@@H]4CC[C@@H]5C[C@](C)(O)CC[C@@H]5[C@H]4CC[C@]23C)nn1`, the Emax is greater than 530%.

As for `C[C@@]1(O)CC[C@H]2[C@H](CC[C@@H]3[C@@H]2CC[C@]2(C)[C@@H](C(=O)Cn4cc(C(F)(F)F)cn4)CC[C@@H]32)C1`, the maximal response (Emax) came out at 339%.

On to `C[C@@]1(O)CC[C@H]2[C@H](CC[C@@H]3[C@@H]2CC[C@]2(C)[C@@H](C(=O)Cn4cc(Cl)cn4)CC[C@@H]32)C1`, for which the maximal effect (Emax) was found to be 642%.

With `Cc1ccnn1CC(=O)[C@H]1CC[C@H]2[C@@H]3CC[C@@H]4C[C@](C)(O)CC[C@@H]4[C@H]3CC[C@]12C`, the maximal effect (Emax) was greater than 469%.

In the case of `Cc1ccn(CC(=O)[C@H]2CC[C@H]3[C@@H]4CC[C@@H]5C[C@](C)(O)CC[C@@H]5[C@H]4CC[C@]23C)n1`, the Emax is greater than 695%.

`CC[C@@]1(O)CC[C@H]2[C@H](CC[C@@H]3[C@@H]2CC[C@]2(C)[C@@H](C(=O)Cn4cc(C#N)cn4)CC[C@@H]32)C1`: the Emax is greater than 297%.

Consider `COC[C@@]1(O)CC[C@H]2[C@H](CC[C@@H]3[C@@H]2CC[C@]2(C)[C@@H](C(=O)Cn4cc(C#N)cn4)CC[C@@H]32)C1`, for which the Emax was greater than 1130%.

Source of the values: ChEMBL document CHEMBL4038335, “Neuroactive Steroids. 2. 3α-Hydroxy-3β-methyl-21-(4-cyano-1H-pyrazol-1'-yl)-19-nor-5β-pregnan-20-one (SAGE-217): A Clinical Next Generation Neuroactive Steroid Positive Allosteric Modulator of the (γ-Aminobutyric Acid)A Receptor” (J Med Chem, 2017).
